Laboratory results from patent US20230121179A1, “SKIN BARRIER FUNCTION ENHANCER” (Shiseido Company, Ltd., priority 2020, published 2023).
Where “and” joins values, the source holds several entries; their conditions need not be identical. Equal entries are not always repeated.

What was measured:
TGase1 = assay: Microarray gene expression in keratinocytes after UV irradiation through wavelength conversion substance; assay type: cell-based; parameters: key: O represents the gene whose expression is significantly changed; X represents the gene whose expression is not changed; conditions: Normal Human Epidermal Keratinocytes, UV 100 mJ/cm^2 through wavelength conversion substance solution, no direct contact, 24 h incubation
From the text: (§1) Lumate G is a zinc oxide phosphor obtained by doping ZnO with a sulfur-containing compound and then firing as described in International Patent Publication No. 2018/004006, the absorption spectrum having a peak wavelength at 365 nm and the emission spectrum having a peak wavelength at 510 nm. • (4) Magnesium titanate phosphor Lumate R by Sakai Chemical Industry Co., Ltd. was used. Lumate R is a magnesium titanate phosphor obtained by doping MgTiO3 with manganese, the absorption spectrum having a peak wavelength at 365 nm and the emission spectrum having peak wavelengths in the range of 660 to 680 nm. • The wavelength conversion substances of (1) and (2) were dissolved in water to prepare solutions at concentrations of 1% and 5%. • The wavelength conversion substances of (3) and (4) were dispersed in alcohol to prepare 5% and 10% dispersions.
(§2) Cell samples were prepared in the following manner. • 1. Human human skin keratinocytes (Normal Human Epidermal Keratinocytes, PromoCell) were used. A cell suspension (1 mL) stored with liquid nitrogen was placed in a hot water bath (37° C.) and thawed until small ice pellets remained, and then diluted with 9 mL of warm KGM medium. • 2. The diluted suspension was gently mixed and transferred to a T75 flask, and incubated overnight at 37° C. • 3. On the following day, the medium was exchanged with 10 mL of fresh medium. • 4. The medium was periodically exchanged (once every 2 - 3 days), while continuing growth of the cells. During this time, a microscope was used to observe the cells and to confirm that the cells had proliferated with the proper form. • 5. Once the cells reached approximately 80% confluence, they were subcultured. • 6. Subculturing of the cells was carried out by rinsing and aspirating once in 10 mL of warm PBS. • 7. 5 mL of warm trypsin was added to the T75 flask to cover the bottom of the flask with the trypsin solution, and the mixture was aspirated after standing for 1 minute at room temperature. • 8. The flask was set in an oven at 37° C. for 5 minutes (maximum) for keratinocytes. A microscope was used to observe the cells, confirming that they were small and elliptical. • 9. The sides of the T75 flask were then lightly tapped to free the cells. A microscope was used to observe the cells and confirm that they were freely moving. • 10. The keratinocytes were resuspended in 5 mL of warm trypsin neutralizing solution, transferred to a sterilized 50 mL Falcon tube. The flask was further rinsed with 5 mL of warm FGM and added to the Falcon tube, to ensure transfer of all of the cells. • 11.. The cells were centrifuged at […] for 5 minutes (4° C.), and the supernatant was carefully removed while avoiding disturbing the cell pellet. • 12. The keratinocytes were resuspended in KGM at a concentration of 2 × 10^4 cells/well (500 µL), and plated in collagen coated glass bottom 4-well chamber slide. • 13. The medium was replaced every two or three days, and cells were proliferated until they reached 60 to 70% confluence (differing for the type of experiment). • 14. At 24 hours before irradiation, the medium was changed to non-supplemented medium.
(§3) • 1. At least 30 minutes prior to irradiation, the power source of a solar simulator was activated to warm up the lamp. The solar simulator used was a UG11 filter. A UG11 filter is a filter that allows passage of UVB alone while cutting light of other wavelengths. […] The temperature control plate was turned on and set to 33° C. • 3. The cells prepared in Experiment 1-2 were rinsed once with warm PBS. • 4. A 0.5 mL portion of warmed Martinez solution (145 mM NaCl, 5.5 mM KC1, 1.2 mM MgCl2·6H2O, 1.2 mM NaH2PO4·2H2O, 7.5 mM HEPES, 1 mM CaCl2 and 10 mM D-glucose) was added to each well. • 5. […] The irradiation was carried out to a total radiation dose of 100 mJ/cm^2. […]

INV = assay: as above; assay type: cell-based; parameters: key: O represents the gene whose expression is significantly changed; X represents the gene whose expression is not changed; conditions: Normal Human Epidermal Keratinocytes, UV 100 mJ/cm^2 through wavelength conversion substance solution, no direct contact, 24 h incubation
From the text: as §1, §2, §3

LOR = assay: as above; assay type: cell-based; parameters: key: O represents the gene whose expression is significantly changed; X represents the gene whose expression is not changed; conditions: Normal Human Epidermal Keratinocytes, UV 100 mJ/cm^2 through wavelength conversion substance solution, no direct contact, 24 h incubation
From the text: as §1, §2, §3

CASP14 = assay: as above; assay type: cell-based; parameters: key: O represents the gene whose expression is significantly changed; X represents the gene whose expression is not changed; conditions: Normal Human Epidermal Keratinocytes, UV 100 mJ/cm^2 through wavelength conversion substance solution, no direct contact, 24 h incubation
From the text: as §1, §2, §3

FLG = assay: as above; assay type: cell-based; parameters: key: O represents the gene whose expression is significantly changed; X represents the gene whose expression is not changed; conditions: Normal Human Epidermal Keratinocytes, UV 100 mJ/cm^2 through wavelength conversion substance solution, no direct contact, 24 h incubation
From the text: as §1, §2, §3

CDSN = assay: as above; assay type: cell-based; parameters: key: O represents the gene whose expression is significantly changed; X represents the gene whose expression is not changed; conditions: Normal Human Epidermal Keratinocytes, UV 100 mJ/cm^2 through wavelength conversion substance solution, no direct contact, 24 h incubation
From the text: as §1, §2, §3

SMPD1 = assay: as above; assay type: cell-based; parameters: key: O represents the gene whose expression is significantly changed; X represents the gene whose expression is not changed; conditions: Normal Human Epidermal Keratinocytes, UV 100 mJ/cm^2 through wavelength conversion substance solution, no direct contact, 24 h incubation
From the text: as §1, §2, §3

[1] = Absorption and emission spectra of wavelength conversion substances; assay type: physicochemical
From the text: as §1

With `Cc1cc2nc3c(=O)[nH]c(=O)nc-3n(C[C@H](O)[C@H](O)[C@H](O)CO)c2cc1C` [Vitamin B2, Riboflavin, reference compound] as the compound, how does the “TGase1 gene expression change” value (TGase1) read?
Its value is “O”.

And the “INV gene expression change” value (INV)?
The value was “O”.

What about the “LOR gene expression change” value (LOR) of the same compound?
Its value is “X”.

What about the “CASP14 gene expression change” value (CASP14) of the same compound?
The value was “O”.

And the “FLG gene expression change” value (FLG)?
Its value is “O”.

What about the “CDSN gene expression change” value (CDSN) of the same compound?
The value was “O”.

What about the “SMPD1 gene expression change” value (SMPD1) of the same compound?
The value was “O”.

And the “absorption spectrum peak wavelength” value [1]?
The value was 445 nm.

And the “emission spectrum peak wavelength” value [1]?
The value was 530 nm.

With C-phycocyanin [Lina Blue] as the compound, how does the “TGase1 gene expression change” value (TGase1) read?
Its value is “O”.

What about the “INV gene expression change” value (INV) of the same compound?
Its value is “O”.

And the “LOR gene expression change” value (LOR)?
Its value is “O”.

And the “CASP14 gene expression change” value (CASP14)?
The value was “O”.

And the “FLG gene expression change” value (FLG)?
The value was “O”.

What about the “CDSN gene expression change” value (CDSN) of the same compound?
Its value is “O”.

And the “SMPD1 gene expression change” value (SMPD1)?
The value was “O”.

What about the “absorption spectrum peak wavelength” value [1] of the same compound?
The value was 350 nm.

What about the “emission spectrum peak wavelength” value [1] of the same compound?
The value was 640 nm and 700 nm.
